According to patent US11464859B2 (priority 2005, dated 2022):
“Also recorded” adds a separate entry of the source.

Key:
[1] = system: acute promyelocytic leukaemia; details: cited from earlier work; for efficacy and side effects compared with intravenous arsenic trioxide: oral, pilot study, patients with acute promyelocytic leukaemia, preliminary results
[2] = system: many different cancer cell lines; details: cited from earlier work
[3] = cited from earlier work
[4] = system: human tumour xenografts (renal cell carcinoma RXF 944LX, mammary cancer MAXF 401)
[5] = system: telomeres of human cancer cells; format: cell-based; details: sodium salt
[6] = target: telomerase (Homo sapiens, UniProt O14746); format: biochemical; details: sodium salt
Sequence of telomerase (O14746 whole entry): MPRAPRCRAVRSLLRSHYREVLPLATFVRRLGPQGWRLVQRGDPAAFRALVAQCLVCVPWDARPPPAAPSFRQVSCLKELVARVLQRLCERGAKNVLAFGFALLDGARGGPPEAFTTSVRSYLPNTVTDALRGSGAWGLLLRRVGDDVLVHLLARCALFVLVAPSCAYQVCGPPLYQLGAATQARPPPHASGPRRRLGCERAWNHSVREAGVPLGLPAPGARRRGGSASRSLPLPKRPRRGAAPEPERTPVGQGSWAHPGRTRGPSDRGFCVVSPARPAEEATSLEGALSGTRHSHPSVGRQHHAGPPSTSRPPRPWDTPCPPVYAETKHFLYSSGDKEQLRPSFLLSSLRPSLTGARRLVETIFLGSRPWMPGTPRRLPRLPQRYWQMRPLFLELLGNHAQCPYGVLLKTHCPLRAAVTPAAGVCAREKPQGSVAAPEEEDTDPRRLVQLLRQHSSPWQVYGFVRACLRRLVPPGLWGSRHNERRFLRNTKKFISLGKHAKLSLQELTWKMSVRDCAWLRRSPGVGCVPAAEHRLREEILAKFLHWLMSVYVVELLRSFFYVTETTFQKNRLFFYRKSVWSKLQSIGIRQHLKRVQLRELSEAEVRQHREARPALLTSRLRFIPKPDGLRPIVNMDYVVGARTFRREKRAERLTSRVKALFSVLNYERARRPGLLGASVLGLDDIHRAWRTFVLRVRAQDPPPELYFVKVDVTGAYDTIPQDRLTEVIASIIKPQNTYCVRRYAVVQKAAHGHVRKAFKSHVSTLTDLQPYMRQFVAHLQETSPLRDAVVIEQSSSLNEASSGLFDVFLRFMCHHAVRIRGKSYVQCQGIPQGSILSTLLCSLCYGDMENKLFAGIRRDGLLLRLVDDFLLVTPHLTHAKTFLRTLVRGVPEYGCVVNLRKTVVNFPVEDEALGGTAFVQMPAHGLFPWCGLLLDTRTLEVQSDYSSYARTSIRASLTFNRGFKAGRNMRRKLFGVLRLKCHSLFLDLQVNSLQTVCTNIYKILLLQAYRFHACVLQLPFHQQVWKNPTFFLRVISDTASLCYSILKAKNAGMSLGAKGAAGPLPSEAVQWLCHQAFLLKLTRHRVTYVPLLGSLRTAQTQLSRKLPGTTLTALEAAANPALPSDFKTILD

[7] = system: prostate and/or urogenital cancer and bone metastasis; details: human, in vivo
[8] = system: panel of 43 human tumour cell lines
[9] = in vivo
[10] = in vivo; remark: listed apart in the source
[11] = human, in vivo

S1[As]2S[As]3S[As]2S[As]13 [tetra-arsenic tetrasulphide]
efficacy and side effects compared with intravenous arsenic trioxide [1]: The same was noted

arsenic trioxide
clinical response ([1]; daily intravenous administration alone, newly diagnosed and relapsed acute promyelocytic leukaemia): complete responses in a large majority of patients | efficacy and side effects compared with intravenous arsenic trioxide [1]: comparable | effect on growth and apoptosis [2]: inhibits growth and promotes apoptosis | incidence of the listed adverse events (fatigue, fever, oedema, chest pain, nausea, ECG abnormalities etc.) ([3]; patients treated with arsenic trioxide): ≥ 10 % of patients | effect on QT interval ([3]; patients): prolong the QT and QT interval corrected for rate (QTc)

arsenous acid sodium salt
anti-tumour activity in a human tumour model in vivo [4]: showed anti-tumour activity | activity in subcutaneously transplanted human tumour xenografts ([4]; in vivo): borderline active in 2/7 | efficacy by schedule ([4]; in vivo): better | effect on telomeres [5]: capable of shortening the telomeres of human cancer cells; also recorded: capable of shortening telomeres of human cancer cells, inducing cellular senescence and chromosomal abnormalities | inhibition of telomerase activity [6]: doesn't inhibit telomerase activity; also recorded: does not directly inhibit the telomerase activity | PSA levels and tumour size, overall [7]: a reduction in their PSA levels and tumour size | change in PSA levels, judgement [7]: clinically significant change | clinical response, overall [7]: Most patients showed at least a partial response | decrease in tumour activity [7]: 99.15% | further reduction in tumour activity [7]: 67.56% | further tumour activity reduction [7]: 40.32% | quality of life [7]: strongly ameliorated | IC50 [8]: 600 nM | combination effect [8]: additive effects | potency among three arsenic compounds [8]: most potent | potency relative to arsenic trioxide [8]: at least 15 fold | absorption [9]: rapidly absorbed | persistence in plasma [9]: remained in the plasma for prolonged periods | bioavailability ([9]; po): approximately 100% | main target organs of toxicity [10]: bone marrow and lymphoid organs | change in ECG activity, audiometry or neurological examinations [11]: no change | disturbance of patients' well-being feeling [11]: did not cause any disturbance | glucose levels [11]: always appeared elevated | hemoglobin concentration at end [11]: 11.1 | hemoglobin concentration at start [11]: 10.0 | liver transaminases sGOT, sGPT and sGGT [11]: reversible increase | sGGT elevation [11]: worsened | sGGT elevation and thrombocytosis [11]: remained unchanged | sGPT [11]: reversible and slight increase | triglycerides and cholesterol level [11]: unchanged | occurrence of the adverse events known for arsenic trioxide ([11]; po): none of these adverse events have been observed
